Data on 5 compounds can be found in article PMC8688955 (Frontiers in Pharmacology, 2021).

The subject of one assay is hGluA1-4 receptors. More on the design: method as in Fukushima et al. (2020). As to conditions: ref Fukushima et al. (2020); cited from earlier work.
Assay [1] deals with postsynaptic AMPA receptors. More on the design: method as in Lee et al., 2008. As to conditions: 30 and 100 µM lamotrigine; ref Lee et al., 2008; cited from earlier work.
A further assay relates to CP-AMPARs. As to the kind of experiment: Whole-cell patch-clamp of kainate-induced currents in isolated striatal giant interneurons. It counts as cell-based, Wistar rat. As to conditions: for CP-AMPARs % inhibition at 100 µM: 100 µM compound, currents induced by 100 µM kainate, mean ± SD, N = 5; for IC50: read-out: IC50 CP-AMPARs, kainate-induced currents. The method, then:
All experimental procedures were approved by the Animal Care and Use Committee of the I.M. Sechenov Institute of Evolutionary Physiology and Biochemistry of the Russian Academy of Sciences. Wistar rats (13–19 days old) were anesthetized with sevoflurane and then decapitated. Maximum effort was made to minimize the number of animals used. Brains were removed quickly and cooled to 2–4°C in an ice bath. […] Single neurons were freed from slices by vibrodissociation ([Vorobjev, 1991]). The antagonism of CP-AMPARs was studied on striatal giant interneurons ([Bernard et al., 1997]; [Gotz et al., 1997]), which were identified by their shape and size. […] The antagonism of CI-AMPARs was studied on pyramidal neurons from the CA1 area of the hippocampus.
(§1) Series resistance of about 20 MΩ was compensated by 70–80% and monitored during experiments. Currents were recorded using an EPC-8 amplifier (HEKA Electronics, Lambrecht, Germany), filtered at 5 kHz, sampled, and stored on a personal computer. Drugs were applied using the RSC-200 perfusion system (BioLogic Science Instruments, Claix, France) under computer control. The solution exchange time in the whole-cell mode was 50–60 ms. The extracellular solution contained (in mM) NaCl 143, KCl 5, MgCl2 2.0, CaCl2 2.5, D-glucose 18, and HEPES 10 (pH was adjusted to 7.3 with HCl). The pipette solution contained (in mM) CsF 100, CsCl 40, NaCl 5, CaCl2 0.5, EGTA 5, and HEPES 10 (pH was adjusted to 7.2 with CsOH). Experiments were performed at room temperature (22–24°C). […] Lamotrigine, topiramate, levetiracetam, felbamate, carbamazepine, tiagabin, vigabatrin, zonisamide, and gabapentin were purchased from Tocris Bioscience (Bristol, United Kingdom). Perampanel was from MedChemExpress (Stockholm, Sweden). Kinetics of transient processes of more than 20-ms duration was approximated by exponential functions. Experiments were performed at −80 mV holding voltage. All experimental data are presented as mean ± SD estimated from at least four experiments. Significance of the effects was tested with paired t test. Differences were considered significant at p < 0.05. 3D structures of compounds were calculated by the ZMM software (zmmsoft.ca).

Assay [2] deals with T1, CI-AMPARs (Rattus norvegicus, UniProt P19491, Q607R).
T1 construct: activity against native calcium-permeable AMPA receptors (CP-AMPARs) and calcium-impermeable AMPA receptors (CI-AMPARs); endogenous in cells; host or cells: acutely isolated pyramidal neurons from the CA1 area of Wistar rat hippocampal slices
As to the kind of experiment: Whole-cell patch-clamp of kainate-induced currents in isolated hippocampal CA1 pyramidal neurons. As to conditions: for CI-AMPARs % inhibition at 100 µM: 100 µM compound; for CI-AMPARs % inhibition at 100 µM / inhibition at 100 µM: currents induced by 100 µM kainate, −80 mV, mean ± SD, N = 5; for inhibition at 100 µM: read-out: CI-AMPARs % inhibition at 100 µM, 100 µM compound; for Difference in the % of inhibition in coapplication and preapplication protocols: coapplication with kainate vs preapplication without kainate. It counts as cell-based, Wistar rat. As to the method:
All experimental procedures were approved by the Animal Care and Use Committee of the I.M. Sechenov Institute of Evolutionary Physiology and Biochemistry of the Russian Academy of Sciences. Wistar rats (13–19 days old) were anesthetized with sevoflurane and then decapitated. Maximum effort was made to minimize the number of animals used. Brains were removed quickly and cooled to 2–4°C in an ice bath. […] The antagonism of CI-AMPARs was studied on pyramidal neurons from the CA1 area of the hippocampus.
as §1, with “The extracellular solution contained (in mM) NaCl 143, KCl 5, MgCl2 2.0, CaCl2 2.5, D-glucose 18, and HEPES 10 (pH was adjusted to 7.3 with HCl).” left out

Assay [3] has as its target T1, CI-AMPARs. More on the design: method as in Barygin, 2016. As to conditions: ref Barygin, 2016, cited from earlier work.
The subject of assay [4] is AMPA and kainate-evoked Ca^2+ uptake. As to conditions: 30 and 100 µM topiramate; ref Poulsen et al., 2004; cited from earlier work.
In another assay the test system is AMPA receptors. More on the design: method as in Carunchio et al., 2007. As to conditions: 200 µM levetiracetam; ref Carunchio et al., 2007; cited from earlier work.
For the next assay, the system named is AMPAR. More on the design: method as in Dudic and Reiner, 2019. As to conditions: ref Dudic and Reiner, 2019; cited from earlier work.
The mark [5] stands for this setting: double-pulse protocol, 30-s pause.

SMILES strings stand for the structures. Where two headings read alike, the source gives them in different places.

T1 sequence (P19491 22-883 Q607R): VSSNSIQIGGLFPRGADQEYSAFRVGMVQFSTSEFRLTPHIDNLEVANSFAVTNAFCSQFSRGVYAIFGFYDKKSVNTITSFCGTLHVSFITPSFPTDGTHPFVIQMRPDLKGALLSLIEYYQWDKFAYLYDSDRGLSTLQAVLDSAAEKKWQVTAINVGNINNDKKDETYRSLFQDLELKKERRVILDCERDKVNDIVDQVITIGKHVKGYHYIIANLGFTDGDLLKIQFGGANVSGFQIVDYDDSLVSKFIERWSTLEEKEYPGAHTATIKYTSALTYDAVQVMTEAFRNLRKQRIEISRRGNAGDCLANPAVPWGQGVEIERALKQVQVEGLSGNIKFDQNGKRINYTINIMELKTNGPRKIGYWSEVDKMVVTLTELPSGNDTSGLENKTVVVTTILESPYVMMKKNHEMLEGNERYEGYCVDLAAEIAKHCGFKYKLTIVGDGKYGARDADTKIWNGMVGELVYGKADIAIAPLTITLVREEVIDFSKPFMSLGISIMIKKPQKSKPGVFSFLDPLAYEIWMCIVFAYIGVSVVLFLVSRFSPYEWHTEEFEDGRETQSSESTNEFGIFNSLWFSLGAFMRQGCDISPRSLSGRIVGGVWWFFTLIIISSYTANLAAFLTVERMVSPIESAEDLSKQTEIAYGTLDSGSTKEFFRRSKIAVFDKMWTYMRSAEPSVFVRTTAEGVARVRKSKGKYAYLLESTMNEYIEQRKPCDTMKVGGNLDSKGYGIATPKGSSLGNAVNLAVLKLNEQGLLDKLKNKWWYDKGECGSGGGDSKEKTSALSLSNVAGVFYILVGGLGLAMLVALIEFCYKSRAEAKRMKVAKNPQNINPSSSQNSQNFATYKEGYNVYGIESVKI

With `Nc1nnc(-c2cccc(Cl)c2Cl)c(N)n1` [Lamotrigine], the “activity against hGluA1-4 receptors” value with hGluA1-4 receptors was “did not find significant activity”. The “decrease of the amplitude of the currents induced by exogenously applied AMPA” value in assay [1] was 10%. Further, in the assay on CP-AMPARs (−80 mV), the “CP-AMPARs % inhibition at 100 µM” value stood at 13 ± 3%. Moreover, the “CP-AMPARs % inhibition at 100 µM” value in the assay on CP-AMPARs (−80 mV, listed as lamotrigine) is not above 20%. Moreover, at CI-AMPARs [2], the “CI-AMPARs % inhibition at 100 µM” value was found to be 14 ± 5% and the inhibition at 100 µM is not above 20%.
Turning to `N#Cc1ccccc1-c1cc(-c2ccccn2)cn(-c2ccccc2)c1=O` [Perampanel], on CI-AMPARs [3] (isolated CA1 pyramidal neurons), the “reduction in activity by cyclothiazide” value is “ca. 20 fold”. Further, the “Activity drop in the presence of cyclothiazide” value at CI-AMPARs [3] was “Yes”. Also, the “Activity drop in the presence of cyclothiazide” value on CI-AMPARs [3] (listed as perampanel) is reported as “less active in the presence of cyclothiazide”. Also, the IC50 in the assay on CP-AMPARs turned out to be 0.06 ± 0.006 µM. At CI-AMPARs [2], the “Activity drop at high (500 µM) kainate concentration” value is “more active in the case of lower kainate concentration and Yes”; the “More active against CI-AMPARs” value is “equipotently inhibited both receptor subtypes and No”; the “Difference in the % of inhibition in coapplication and preapplication protocols” value is given as “No”. Also, on CI-AMPARs [2] (500 nM perampanel, double-pulse protocol, n = 4), the “time constant τ of the response to testing kainate application in the trapping protocol” value is on record as 41 ± 12 ms. Besides, the “decrease in the % of inhibition with the increase in agonist concentration” value at CI-AMPARs [2] (50 vs 500 µM kainate) is recorded as 30–40%. Also, at CI-AMPARs [2] (listed as perampanel), the “Difference in the % of inhibition in coapplication and preapplication protocols” value was “equally effective in preapplication and coapplication protocols”. In addition, on CI-AMPARs [2] (setting [5]), the “Trap in kainate 100 µM” value is “No” and the “Trap in kainate 500 µM” value is on record as “No”. The compound further showed an IC50 against CI-AMPARs [2] (kainate-induced currents) of 0.063 ± 0.008 µM.
With `CC1(C)O[C@@H]2[C@@H](CO[C@@]3(COS(N)(=O)=O)OC(C)(C)O[C@@H]23)O1` [Topiramate], the “activity against hGluA1-4 receptors” value with hGluA1-4 receptors is “did not find significant activity”. Besides, the “CP-AMPARs % inhibition at 100 µM” value in the assay on CP-AMPARs (−80 mV) is on record as 14 ± 2%. The “CP-AMPARs % inhibition at 100 µM” value in the assay on CP-AMPARs (−80 mV, listed as topiramate) is not above 20%. Further, on CI-AMPARs [2], the “CI-AMPARs % inhibition at 100 µM” value came out at 12 ± 2% and the inhibition at 100 µM is not above 20%. Besides, in assay [4], the “inhibition of AMPA and kainate-evoked Ca^2+ uptake” value is recorded as “up to 60%”.
With `CC[C@@H](C(N)=O)N1CCCC1=O` [Levetiracetam], in the assay on hGluA1-4 receptors, the “activity against hGluA1-4 receptors” value was “did not find significant activity”. The “decrease of the amplitude of kainate-induced current” value with AMPA receptors is given as “about 26%”. Moreover, the “CP-AMPARs % inhibition at 100 µM” value is given as 9 ± 3% in the assay on CP-AMPARs (−80 mV) and not above 20% in the assay with CP-AMPARs (−80 mV, listed as levetiracetam). Moreover, the “CI-AMPARs % inhibition at 100 µM” value on CI-AMPARs [2] is on record as 6 ± 2%; at CI-AMPARs [2] (listed as levetiracetam) it was not above 20%.
As to `O=c1[nH]c2cc([N+](=O)[O-])c([N+](=O)[O-])cc2[nH]c1=O` [DNQX], in the assay with AMPAR, the pH-dependence result is reported as “Yes ^a”. The IC50 in the assay with CP-AMPARs (Hill equation, −80 mV) is 0.31 ± 0.06 µM.

As a reminder, the inhibition is how much of the control response was suppressed. As usually defined, the IC50 is the midpoint of a concentration-inhibition curve.
